Source: ChEMBL document CHEMBL1124342, “N6-bicycloalkyladenosines with unusually high potency and selectivity for the adenosine A1 receptor” (J Med Chem, 1989)

biological target: T1, Adenosine receptor A1 (Rattus norvegicus, UniProt P25099); test: Binding affinity against Adenosine A1 receptor using [3H]CHA in rat brain membranes; type: cell membranes
T1 sequence (P25099 whole entry): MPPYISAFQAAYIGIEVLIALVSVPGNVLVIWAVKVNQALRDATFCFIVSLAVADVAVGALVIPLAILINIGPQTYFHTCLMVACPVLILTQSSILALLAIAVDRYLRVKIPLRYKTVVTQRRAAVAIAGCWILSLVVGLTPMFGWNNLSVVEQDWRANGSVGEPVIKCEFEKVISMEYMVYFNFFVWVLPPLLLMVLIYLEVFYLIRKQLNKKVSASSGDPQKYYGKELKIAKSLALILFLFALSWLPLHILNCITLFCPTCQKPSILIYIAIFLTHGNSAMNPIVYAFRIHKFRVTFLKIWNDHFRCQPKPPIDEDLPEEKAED

Q: `OC[C@H]1O[C@@H](n2cnc3c(NC4C[C@H]5CC[C@@H]4C5)ncnc32)[C@H](O)[C@@H]1O` (some centres undefined) was tested. Which Ki did it give?
A: 0.91 nM

Q: With `OC[C@H]1O[C@@H](n2cnc3c(N[C@@H]4C[C@@H]5CC[C@H]4C5)ncnc32)[C@H](O)[C@@H]1O` as the compound, how does the Ki read?
A: 1.65 nM

Q: How did the Ki turn out when `O[C@@H]1[C@H](O)[C@@H](CCl)O[C@H]1n1cnc2c(NC3CCCC3)ncnc21` was run?
A: 0.72 nM

Q: How did the Ki turn out when `OC[C@H]1O[C@@H](n2cnc3c(NC4CC5CCC4C5)ncnc32)[C@H](O)[C@@H]1O` (some centres undefined) was run?
A: 0.42 nM

Q: How did the Ki turn out when `OC[C@H]1O[C@@H](n2cnc3c(N[C@H]4CC5CCC4C5)ncnc32)[C@H](O)[C@@H]1O` (single isomer, unassigned) was run?
A: 0.3 nM

biological target: Adenosine A2 receptor (Rattus norvegicus, UniProt P29276+P30543); test: Binding affinity against Adenosine A2 receptor using [3H]NECA with 50 nM CPA in rat striatal brain membranes; type: cell membranes, Membrane

Q: `O[C@@H]1[C@H](O)[C@@H](CCl)O[C@H]1n1cnc2c(NC3C[C@H]4CCC3C4)ncnc21` (some centres undefined) was tested. Which Ki did it give?
A: 2100 nM

Q: `O[C@@H]1[C@H](O)[C@@H](CCl)O[C@H]1n1cnc2c(N[C@@H]3C[C@@H]4CC[C@H]3C4)ncnc21` was tested. Which Ki did it give?
A: 3000 nM

Q: With `O[C@@H]1[C@H](O)[C@@H](CCl)O[C@H]1n1cnc2c(N[C@H]3C[C@H]4CCC3C4)ncnc21` as the compound, how does the Ki read?
A: 3900 nM

Q: `O[C@@H]1[C@H](O)[C@@H](CCl)O[C@H]1n1cnc2c(NC3CCCC3)ncnc21` was tested. Which Ki did it give?
A: 1870 nM
